According to the kinase profiling compilation of Christmann-Franck et al. (2016):

Experiments:
Experiment in all cases: radiometric filter-binding kinase assay, Kinase HotSpot
Settings in all cases: compound 0.5 µM; ATP 10 µM
[1] = molecular target: TYK2 JH1 catalytic (human) (UniProt P29597)
WNK3 (human) = WNK3 (human) (UniProt Q9BYP7)
SRPK3 (human) = SRPK3 (human) (UniProt Q9UPE1)
TAOK3 (human) = TAOK3 (human) (UniProt Q9H2K8)
FES (human) = FES (human) (UniProt P07332)
CSNK1G2 (human) = CSNK1G2 (human) (UniProt P78368)
MAP3K8 (human) = MAP3K8 (human) (UniProt P41279)
CSNK1E (human) = CSNK1E (human) (UniProt P49674)
EPHB1 (human) = EPHB1 (human) (UniProt P54762)
EPHA7 (human) = EPHA7 (human) (UniProt Q15375)
PAK2 (human) = PAK2 (human) (UniProt Q13177)
IGF1R (human) = IGF1R (human) (UniProt P08069)
MAPK8 (human) = MAPK8 (human) (UniProt P45983)
CAMK1 (human) = CAMK1 (human) (UniProt Q14012)
INSR (human) = INSR (human) (UniProt P06213)
CSNK2A1 (human) = CSNK2A1 (human) (UniProt P68400)
GRK5 (human) = GRK5 (human) (UniProt P34947)
EPHA5 (human) = EPHA5 (human) (UniProt P54756)
Chain of EPHA5 (human) (P54756 whole entry, looked up): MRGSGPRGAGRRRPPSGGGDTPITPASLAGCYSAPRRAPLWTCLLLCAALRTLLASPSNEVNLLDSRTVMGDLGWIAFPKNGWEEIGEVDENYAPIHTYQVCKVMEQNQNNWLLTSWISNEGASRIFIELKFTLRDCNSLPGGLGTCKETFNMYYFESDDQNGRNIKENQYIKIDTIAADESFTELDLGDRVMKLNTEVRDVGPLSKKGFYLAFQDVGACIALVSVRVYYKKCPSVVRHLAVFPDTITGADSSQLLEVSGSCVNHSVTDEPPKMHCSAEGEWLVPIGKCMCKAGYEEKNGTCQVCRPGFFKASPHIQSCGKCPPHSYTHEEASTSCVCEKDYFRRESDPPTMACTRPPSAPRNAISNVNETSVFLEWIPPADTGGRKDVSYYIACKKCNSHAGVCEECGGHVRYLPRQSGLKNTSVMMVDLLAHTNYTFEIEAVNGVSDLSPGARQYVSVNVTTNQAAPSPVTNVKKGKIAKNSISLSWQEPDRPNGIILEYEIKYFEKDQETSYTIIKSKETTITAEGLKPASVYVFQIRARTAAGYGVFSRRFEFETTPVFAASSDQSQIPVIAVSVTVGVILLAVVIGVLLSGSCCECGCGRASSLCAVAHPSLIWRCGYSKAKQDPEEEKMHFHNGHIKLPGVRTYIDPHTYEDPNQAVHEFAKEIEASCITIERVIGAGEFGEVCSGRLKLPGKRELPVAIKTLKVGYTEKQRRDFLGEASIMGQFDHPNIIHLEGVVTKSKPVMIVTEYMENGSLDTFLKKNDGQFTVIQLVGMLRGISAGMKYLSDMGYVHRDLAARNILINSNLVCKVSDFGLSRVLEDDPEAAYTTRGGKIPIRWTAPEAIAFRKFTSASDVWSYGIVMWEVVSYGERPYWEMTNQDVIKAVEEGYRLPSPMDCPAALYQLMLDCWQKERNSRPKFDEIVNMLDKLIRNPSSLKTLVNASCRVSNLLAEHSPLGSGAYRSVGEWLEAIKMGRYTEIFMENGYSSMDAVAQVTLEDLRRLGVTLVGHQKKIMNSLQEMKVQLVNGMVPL

CAMK2B (human) = CAMK2B (human) (UniProt Q13554)
Chain of CAMK2B (human) (Q13554 whole entry, looked up): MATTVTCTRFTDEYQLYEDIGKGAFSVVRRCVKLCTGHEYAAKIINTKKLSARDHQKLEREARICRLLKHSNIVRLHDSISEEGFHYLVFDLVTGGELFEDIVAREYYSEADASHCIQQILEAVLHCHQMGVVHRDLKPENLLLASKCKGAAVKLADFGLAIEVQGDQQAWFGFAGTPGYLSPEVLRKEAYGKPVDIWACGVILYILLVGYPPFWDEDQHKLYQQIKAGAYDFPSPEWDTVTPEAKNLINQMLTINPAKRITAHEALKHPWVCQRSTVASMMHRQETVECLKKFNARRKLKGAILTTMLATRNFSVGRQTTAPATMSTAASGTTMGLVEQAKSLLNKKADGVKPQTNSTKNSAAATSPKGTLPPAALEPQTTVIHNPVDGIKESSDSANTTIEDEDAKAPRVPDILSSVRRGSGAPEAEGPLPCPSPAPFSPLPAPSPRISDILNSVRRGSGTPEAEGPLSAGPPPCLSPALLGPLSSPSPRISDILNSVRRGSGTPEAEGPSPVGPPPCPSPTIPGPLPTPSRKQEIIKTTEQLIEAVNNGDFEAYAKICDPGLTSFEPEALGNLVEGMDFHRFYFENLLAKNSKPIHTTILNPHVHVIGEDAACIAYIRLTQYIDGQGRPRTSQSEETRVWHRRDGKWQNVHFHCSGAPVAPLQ

TAOK1 (human) = TAOK1 (human) (UniProt Q7L7X3)
RPS6KA4 KD2 (human) = RPS6KA4 KD2 (human) (UniProt O75676)
Chain of RPS6KA4 KD2 (human) (O75676 whole entry, looked up): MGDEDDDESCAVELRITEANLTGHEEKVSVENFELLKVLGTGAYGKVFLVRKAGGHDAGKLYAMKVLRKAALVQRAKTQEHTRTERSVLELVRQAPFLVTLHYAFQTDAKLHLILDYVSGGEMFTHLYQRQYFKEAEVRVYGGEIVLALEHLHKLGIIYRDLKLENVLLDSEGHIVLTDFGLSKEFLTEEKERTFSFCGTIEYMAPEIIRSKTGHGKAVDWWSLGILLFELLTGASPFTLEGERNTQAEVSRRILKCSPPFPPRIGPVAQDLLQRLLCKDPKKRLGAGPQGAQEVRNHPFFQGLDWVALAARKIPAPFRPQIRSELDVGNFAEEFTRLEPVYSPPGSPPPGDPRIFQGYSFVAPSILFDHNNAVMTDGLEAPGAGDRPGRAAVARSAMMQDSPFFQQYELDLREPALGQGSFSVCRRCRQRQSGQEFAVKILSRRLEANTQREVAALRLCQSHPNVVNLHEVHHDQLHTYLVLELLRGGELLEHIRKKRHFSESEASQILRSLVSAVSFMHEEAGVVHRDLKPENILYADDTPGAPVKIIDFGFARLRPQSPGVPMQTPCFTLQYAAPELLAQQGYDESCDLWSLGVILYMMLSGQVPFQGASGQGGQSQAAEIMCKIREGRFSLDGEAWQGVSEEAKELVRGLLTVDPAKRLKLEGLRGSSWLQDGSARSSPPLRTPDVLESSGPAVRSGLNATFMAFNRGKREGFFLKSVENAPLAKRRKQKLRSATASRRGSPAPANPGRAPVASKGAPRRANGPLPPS

TNK2 (human) = TNK2 (human) (UniProt Q07912)
CDK1 CCNB1 (human) = CDK1 CCNB1 (human) (UniProt P06493+P14635)
PIM3 (human) = PIM3 (human) (UniProt Q86V86)
AKT1 (human) = AKT1 (human) (UniProt P31749)
EPHB4 (human) = EPHB4 (human) (UniProt P54760)
PKN1 (human) = PKN1 (human) (UniProt Q16512)
MAPKAPK3 (human) = MAPKAPK3 (human) (UniProt Q16644)
CAMK1D (human) = CAMK1D (human) (UniProt Q8IU85)
Chain of CAMK1D (human) (Q8IU85 whole entry, looked up): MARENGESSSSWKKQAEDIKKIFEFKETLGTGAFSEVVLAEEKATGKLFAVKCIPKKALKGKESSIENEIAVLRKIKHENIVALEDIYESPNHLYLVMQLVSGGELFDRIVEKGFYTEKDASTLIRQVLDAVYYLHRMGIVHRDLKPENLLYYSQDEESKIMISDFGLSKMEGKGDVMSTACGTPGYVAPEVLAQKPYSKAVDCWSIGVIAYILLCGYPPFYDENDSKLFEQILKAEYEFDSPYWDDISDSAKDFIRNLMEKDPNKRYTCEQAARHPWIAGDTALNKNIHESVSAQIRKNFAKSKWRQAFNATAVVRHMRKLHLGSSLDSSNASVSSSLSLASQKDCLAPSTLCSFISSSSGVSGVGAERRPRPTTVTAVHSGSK

INSRR (human) = INSRR (human) (UniProt P14616)
PRKCG (human) = PRKCG (human) (UniProt P05129)
MAP3K10 (human) = MAP3K10 (human) (UniProt Q02779)
PLK2 (human) = PLK2 (human) (UniProt Q9NYY3)
Chain of PLK2 (human) (Q9NYY3 whole entry, looked up): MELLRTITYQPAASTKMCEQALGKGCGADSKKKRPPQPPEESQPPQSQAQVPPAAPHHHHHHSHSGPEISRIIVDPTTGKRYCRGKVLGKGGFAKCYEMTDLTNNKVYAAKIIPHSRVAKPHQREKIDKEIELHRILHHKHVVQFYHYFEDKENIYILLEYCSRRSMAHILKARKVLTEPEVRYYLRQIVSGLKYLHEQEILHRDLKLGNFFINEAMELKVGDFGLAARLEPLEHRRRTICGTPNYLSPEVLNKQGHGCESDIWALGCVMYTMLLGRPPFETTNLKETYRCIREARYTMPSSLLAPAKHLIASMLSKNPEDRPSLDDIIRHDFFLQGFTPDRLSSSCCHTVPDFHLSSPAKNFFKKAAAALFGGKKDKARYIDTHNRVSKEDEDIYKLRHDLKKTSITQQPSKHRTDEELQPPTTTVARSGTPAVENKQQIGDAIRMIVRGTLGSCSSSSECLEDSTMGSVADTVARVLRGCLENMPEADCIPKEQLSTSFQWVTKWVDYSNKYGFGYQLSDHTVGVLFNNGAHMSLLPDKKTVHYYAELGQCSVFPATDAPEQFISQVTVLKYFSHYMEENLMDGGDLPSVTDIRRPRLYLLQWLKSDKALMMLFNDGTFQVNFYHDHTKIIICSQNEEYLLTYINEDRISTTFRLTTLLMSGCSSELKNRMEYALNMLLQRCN

STK11 (human) = STK11 (human) (UniProt Q15831)
FGFR4 (human) = FGFR4 (human) (UniProt P22455)
CDK2 CCNA2 (human) = CDK2 CCNA2 (human) (UniProt P24941+P20248)
MAPK12 (human) = MAPK12 (human) (UniProt P53778)
MATK (human) = MATK (human) (UniProt P42679)
Chain of MATK (human) (P42679 whole entry, looked up): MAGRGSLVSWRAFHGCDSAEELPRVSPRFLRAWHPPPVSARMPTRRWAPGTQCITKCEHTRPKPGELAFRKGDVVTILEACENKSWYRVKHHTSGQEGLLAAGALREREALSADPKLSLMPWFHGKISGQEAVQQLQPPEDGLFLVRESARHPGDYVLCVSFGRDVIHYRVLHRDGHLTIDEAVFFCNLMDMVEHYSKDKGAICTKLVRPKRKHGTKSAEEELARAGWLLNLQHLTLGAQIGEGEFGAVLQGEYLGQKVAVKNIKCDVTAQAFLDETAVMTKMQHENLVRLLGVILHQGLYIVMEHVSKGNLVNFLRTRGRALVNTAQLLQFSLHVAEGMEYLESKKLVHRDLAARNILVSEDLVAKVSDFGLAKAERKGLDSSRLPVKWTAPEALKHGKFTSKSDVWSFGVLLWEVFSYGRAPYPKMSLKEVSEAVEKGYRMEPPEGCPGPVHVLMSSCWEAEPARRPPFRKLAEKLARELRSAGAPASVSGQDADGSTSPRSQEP

CAMK2A (human) = CAMK2A (human) (UniProt Q9UQM7)
CDC42BPA (human) = CDC42BPA (human) (UniProt Q5VT25)
ZAP70 (human) = ZAP70 (human) (UniProt P43403)
FGFR1 (human) = FGFR1 (human) (UniProt P11362)

Chain of FES (human) (P07332 whole entry, looked up): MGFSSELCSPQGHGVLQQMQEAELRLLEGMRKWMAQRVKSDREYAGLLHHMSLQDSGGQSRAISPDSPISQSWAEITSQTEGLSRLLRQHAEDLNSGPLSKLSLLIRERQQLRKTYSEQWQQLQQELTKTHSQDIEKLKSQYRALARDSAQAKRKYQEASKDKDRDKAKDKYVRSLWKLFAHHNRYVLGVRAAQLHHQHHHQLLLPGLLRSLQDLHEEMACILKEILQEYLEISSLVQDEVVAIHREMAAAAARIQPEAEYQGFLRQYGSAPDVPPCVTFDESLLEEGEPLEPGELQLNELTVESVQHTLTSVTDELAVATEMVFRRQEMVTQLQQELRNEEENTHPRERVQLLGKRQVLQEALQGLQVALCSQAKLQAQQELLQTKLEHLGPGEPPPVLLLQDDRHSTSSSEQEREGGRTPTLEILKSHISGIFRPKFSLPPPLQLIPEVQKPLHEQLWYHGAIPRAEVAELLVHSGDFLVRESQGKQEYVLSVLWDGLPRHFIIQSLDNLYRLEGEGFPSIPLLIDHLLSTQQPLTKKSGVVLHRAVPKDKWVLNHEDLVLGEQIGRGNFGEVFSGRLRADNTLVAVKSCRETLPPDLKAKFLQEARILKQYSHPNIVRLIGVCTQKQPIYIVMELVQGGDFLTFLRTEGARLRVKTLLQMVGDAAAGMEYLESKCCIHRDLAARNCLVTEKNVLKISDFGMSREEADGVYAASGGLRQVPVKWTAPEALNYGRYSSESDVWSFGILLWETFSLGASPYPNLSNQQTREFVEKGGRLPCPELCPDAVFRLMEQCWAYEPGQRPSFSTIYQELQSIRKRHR

## O=C1NC(=O)c2cc(Nc3ccc(F)cc3)c(Nc3ccc(F)cc3)cc21
[1]
  residual activity: 80.6%
WNK3 (human)
  residual activity: 92.7%
SRPK3 (human)
  residual activity: 98%
TAOK3 (human)
  residual activity: 89.9%
FES (human)
  residual activity: 99.5%
CSNK1G2 (human)
  residual activity: 97.5%
MAP3K8 (human)
  residual activity: 96.3%
CSNK1E (human)
  residual activity: 98%
EPHB1 (human)
  residual activity: 103%
EPHA7 (human)
  residual activity: 84.6%
PAK2 (human)
  residual activity: 98.5%
IGF1R (human)
  residual activity: 102%
MAPK8 (human)
  residual activity: 91.4%
CAMK1 (human)
  residual activity: 104%
INSR (human)
  residual activity: 98.3%
CSNK2A1 (human)
  residual activity: 95.7%
GRK5 (human)
  residual activity: 101%
EPHA5 (human)
  residual activity: 95.4%
CAMK2B (human)
  residual activity: 98.7%
TAOK1 (human)
  residual activity: 90.3%
RPS6KA4 KD2 (human)
  residual activity: 102%
TNK2 (human)
  residual activity: 93.2%
CDK1 CCNB1 (human)
  residual activity: 103%
PIM3 (human)
  residual activity: 105%
AKT1 (human)
  residual activity: 94.8%
EPHB4 (human)
  residual activity: 108%
PKN1 (human)
  residual activity: 97.7%
MAPKAPK3 (human)
  residual activity: 95.9%
CAMK1D (human)
  residual activity: 78.1%
INSRR (human)
  residual activity: 111%
PRKCG (human)
  residual activity: 102%
MAP3K10 (human)
  residual activity: 90.6%
PLK2 (human)
  residual activity: 99.6%
STK11 (human)
  residual activity: 98.2%
FGFR4 (human)
  residual activity: 95.5%
CDK2 CCNA2 (human)
  residual activity: 95.3%
MAPK12 (human)
  residual activity: 93.6%
MATK (human)
  residual activity: 93.5%
CAMK2A (human)
  residual activity: 103%
CDC42BPA (human)
  residual activity: 92.3%
ZAP70 (human)
  residual activity: 78.8%
FGFR1 (human)
  residual activity: 92.1%

## Cc1cc(Nc2nc(-c3ccccc3)nc3ccccc23)n[nH]1
[1]
  residual activity: 34.3%
WNK3 (human)
  residual activity: 74.9%
SRPK3 (human)
  residual activity: 61.5%
TAOK3 (human)
  residual activity: 86.9%
FES (human)
  residual activity: 94.7%
CSNK1G2 (human)
  residual activity: 69.3%
MAP3K8 (human)
  residual activity: 105%
CSNK1E (human)
  residual activity: 97.4%
EPHB1 (human)
  residual activity: 93.1%
EPHA7 (human)
  residual activity: 72.5%
PAK2 (human)
  residual activity: 91.8%
IGF1R (human)
  residual activity: 70.8%
MAPK8 (human)
  residual activity: 92%
CAMK1 (human)
  residual activity: 93.1%
INSR (human)
  residual activity: 31.6%
CSNK2A1 (human)
  residual activity: 27%
GRK5 (human)
  residual activity: 119%
EPHA5 (human)
  residual activity: 90.6%
CAMK2B (human)
  residual activity: 97.7%
TAOK1 (human)
  residual activity: 115%
RPS6KA4 KD2 (human)
  residual activity: 108%
TNK2 (human)
  residual activity: 10.8%
CDK1 CCNB1 (human)
  residual activity: 76%
PIM3 (human)
  residual activity: 130%
AKT1 (human)
  residual activity: 107%
EPHB4 (human)
  residual activity: 91.1%
PKN1 (human)
  residual activity: 89.9%
MAPKAPK3 (human)
  residual activity: 81%
CAMK1D (human)
  residual activity: 85.4%
INSRR (human)
  residual activity: 20.7%
PRKCG (human)
  residual activity: 98.6%
MAP3K10 (human)
  residual activity: 75.4%
PLK2 (human)
  residual activity: 110%
STK11 (human)
  residual activity: 69%
FGFR4 (human)
  residual activity: 81.9%
CDK2 CCNA2 (human)
  residual activity: 96.9%
MAPK12 (human)
  residual activity: 86.8%
MATK (human)
  residual activity: 96.1%
CAMK2A (human)
  residual activity: 108%
CDC42BPA (human)
  residual activity: 108%
ZAP70 (human)
  residual activity: 105%
FGFR1 (human)
  residual activity: 48.8%

## O=c1c2ccccc2[nH]c(=S)n1CCN1CCC(=C(c2ccc(F)cc2)c2ccc(F)cc2)CC1
[1]
  residual activity: 107%
WNK3 (human)
  residual activity: 107%
SRPK3 (human)
  residual activity: 102%
TAOK3 (human)
  residual activity: 92.4%
FES (human)
  residual activity: 94.9%
CSNK1G2 (human)
  residual activity: 98.6%
MAP3K8 (human)
  residual activity: 100%
CSNK1E (human)
  residual activity: 100%
EPHB1 (human)
  residual activity: 100%
EPHA7 (human)
  residual activity: 96.9%
PAK2 (human)
  residual activity: 103%
IGF1R (human)
  residual activity: 105%
MAPK8 (human)
  residual activity: 98.9%
CAMK1 (human)
  residual activity: 98.6%
INSR (human)
  residual activity: 94.3%
CSNK2A1 (human)
  residual activity: 97.9%
GRK5 (human)
  residual activity: 103%
EPHA5 (human)
  residual activity: 112%
CAMK2B (human)
  residual activity: 102%
TAOK1 (human)
  residual activity: 101%
RPS6KA4 KD2 (human)
  residual activity: 103%
TNK2 (human)
  residual activity: 105%
CDK1 CCNB1 (human)
  residual activity: 83%
PIM3 (human)
  residual activity: 108%
AKT1 (human)
  residual activity: 98.3%
EPHB4 (human)
  residual activity: 97.1%
PKN1 (human)
  residual activity: 103%
MAPKAPK3 (human)
  residual activity: 109%
CAMK1D (human)
  residual activity: 96.8%
INSRR (human)
  residual activity: 98.3%
PRKCG (human)
  residual activity: 100%
MAP3K10 (human)
  residual activity: 99.6%
PLK2 (human)
  residual activity: 104%
STK11 (human)
  residual activity: 107%
FGFR4 (human)
  residual activity: 105%
CDK2 CCNA2 (human)
  residual activity: 99.9%
MAPK12 (human)
  residual activity: 99%
MATK (human)
  residual activity: 92.9%
CAMK2A (human)
  residual activity: 105%
CDC42BPA (human)
  residual activity: 97.7%
ZAP70 (human)
  residual activity: 98%
FGFR1 (human)
  residual activity: 105%

## COc1cc2c(N3CCN(C(=O)Nc4ccc(OC(C)C)cc4)CC3)ncnc2cc1OCCCN1CCCCC1
[1]
  residual activity: 97.9%
WNK3 (human)
  residual activity: 102%
SRPK3 (human)
  residual activity: 102%
TAOK3 (human)
  residual activity: 96.8%
FES (human)
  residual activity: 105%
CSNK1G2 (human)
  residual activity: 95.5%
MAP3K8 (human)
  residual activity: 93.2%
CSNK1E (human)
  residual activity: 99.1%
EPHB1 (human)
  residual activity: 96.6%
EPHA7 (human)
  residual activity: 97.5%
PAK2 (human)
  residual activity: 112%
IGF1R (human)
  residual activity: 97.7%
MAPK8 (human)
  residual activity: 105%
CAMK1 (human)
  residual activity: 101%
INSR (human)
  residual activity: 99.3%
CSNK2A1 (human)
  residual activity: 102%
GRK5 (human)
  residual activity: 106%
EPHA5 (human)
  residual activity: 104%
CAMK2B (human)
  residual activity: 99.9%
TAOK1 (human)
  residual activity: 103%
RPS6KA4 KD2 (human)
  residual activity: 120%
TNK2 (human)
  residual activity: 92.7%
CDK1 CCNB1 (human)
  residual activity: 97.1%
PIM3 (human)
  residual activity: 100%
AKT1 (human)
  residual activity: 102%
EPHB4 (human)
  residual activity: 95%
PKN1 (human)
  residual activity: 108%
MAPKAPK3 (human)
  residual activity: 103%
CAMK1D (human)
  residual activity: 110%
INSRR (human)
  residual activity: 98.9%
PRKCG (human)
  residual activity: 90.9%
MAP3K10 (human)
  residual activity: 101%
PLK2 (human)
  residual activity: 99.8%
STK11 (human)
  residual activity: 104%
FGFR4 (human)
  residual activity: 87.8%
CDK2 CCNA2 (human)
  residual activity: 93.3%
MAPK12 (human)
  residual activity: 96.4%
MATK (human)
  residual activity: 79.4%
CAMK2A (human)
  residual activity: 101%
CDC42BPA (human)
  residual activity: 106%
ZAP70 (human)
  residual activity: 116%
FGFR1 (human)
  residual activity: 101%
